Key:
barnyardgrass [1] = assay: Test A pre-/postemergence herbicide test; format: in vivo, Echinochloa crus-galli; settings: for Barnyardgrass plant response rating: Preemergence, visual rating on 0 to 100 scale (0 no effect, 100 complete control)
Summary of the method: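 Planted in loam–sand blend; treated the same day preemergence by directed soil spray, while separately grown plants at one- to two-leaf stage got postemergence spray. Compared visually with untreated controls after approximately 10 days; 100 means complete control.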

rice = assay: Test B flooded paddy test; format: in vivo, Oryza sativa; settings: Flood, scale of 0 to 100 where 0 is no effect and 100 is complete control
Summary of the method: (§1)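 Scoring: visual, compared with untreated controls, 0 = no effect through 100 = complete control, taken 13 to 15 days after treatment in the greenhouse. Compounds had been added to paddy water over soil flooded 3 cm deep at the plants' 2-leaf stage.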

barnyardgrass [2] = assay: Test B flooded paddy test; format: in vivo, Echinochloa crus-galli; settings: Flood, scale of 0 to 100 where 0 is no effect and 100 is complete control
Summary of the method: as §1

blackgrass = assay: Test C pre-/postemergence herbicide test; format: in vivo, Alopecurus myosuroides; settings: for Blackgrass plant response rating: scale 0 to 100, 0 is no effect and 100 is complete control
Summary of the method: (§2)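 Test compounds, formulated in a surfactant-containing non-phytotoxic solvent blend, are applied to seeded loam/sand soil (preemergence) and to young plants at the 1- to 4-leaf stage in peat-based medium (postemergence). Plants stay 13 to 15 days under greenhouse conditions, then are scored visually relative to controls, 0 = no effect, 100 = complete control.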

galium = assay: Test C pre-/postemergence herbicide test; format: in vivo, Galium aparine; settings: for Galium plant response rating: scale 0 to 100, 0 is no effect and 100 is complete control
Summary of the method: as §2

corn = assay: Test C pre-/postemergence herbicide test; format: in vivo, Zea mays; settings: for Corn plant response rating: scale 0 to 100, 0 is no effect and 100 is complete control
Summary of the method: as §2

crabgrass, large = assay: Test C pre-/postemergence herbicide test; format: in vivo, Digitaria sanguinalis; settings: for Crabgrass, Large plant response rating: scale 0 to 100, 0 is no effect and 100 is complete control
Summary of the method: as §2

foxtail, giant = assay: Test C pre-/postemergence herbicide test; format: in vivo, Setaria faberii; settings: for Foxtail, Giant plant response rating: scale 0 to 100, 0 is no effect and 100 is complete control
Summary of the method: as §2

lambsquarters = assay: Test C pre-/postemergence herbicide test; format: in vivo, Chenopodium album; settings: for Lambsquarters plant response rating: scale 0 to 100, 0 is no effect and 100 is complete control
Summary of the method: as §2

pigweed = assay: Test C pre-/postemergence herbicide test; format: in vivo, Amaranthus retroflexus; settings: for Pigweed plant response rating: scale 0 to 100, 0 is no effect and 100 is complete control
Summary of the method: as §2

velvetleaf = assay: Test C pre-/postemergence herbicide test; format: in vivo, Abutilon theophrasti; settings: for Velvetleaf plant response rating: scale 0 to 100, 0 is no effect and 100 is complete control
Summary of the method: as §2

[3] = Postemergence, 125 g ai/ha, 0 to 100 scale, 0 no effect, 100 complete control
[4] = Postemergence, 500 g ai/ha, 0 to 100 scale (0 no effect, 100 complete control)
[5] = preemergence, 500 g ai/ha, 0 to 100 scale (0 no effect, 100 complete control)
[6] = Postemergence, 31 g ai/ha, scale 0 (no effect) to 100 (complete control)
[7] = Postemergence, 62 g ai/ha, scale 0 to 100 (0 no effect, 100 complete control)
[8] = Postemergence, 125 g ai/ha, scale 0 to 100 (0 no effect, 100 complete control)
[9] = Postemergence, 250 g ai/ha, scale 0 to 100 (0 no effect, 100 complete control)
[10] = Preemergence, 62 g ai/ha, scale 0 to 100
[11] = Preemergence, 125 g ai/ha, scale 0 to 100 (0 no effect, 100 complete control)

## Cc1ccccc1NC(=O)C1C(=O)NCC1c1cccc(C(F)(F)F)c1 (racemic) [Compound 109]
Barnyardgrass [1]; [3]
  Plant response rating, Barnyardgrass: 90
Barnyardgrass [1]; [4]
  Plant response rating, Barnyardgrass: 90
Barnyardgrass [1]; 125 g ai/ha
  Barnyardgrass plant response rating: 80
Barnyardgrass [1]; [5]
  Plant response rating, Barnyardgrass: 90
rice; 1000 g ai/ha
  Plant response rating, Rice: 0
Barnyardgrass [2]; 1000 g ai/ha
  Plant response rating, Barnyardgrass: 0
blackgrass; [6]
  Plant response rating, Blackgrass: 0
blackgrass; [7]
  Plant response rating, Blackgrass: 0
blackgrass; [8]
  Plant response rating, Blackgrass: 0
blackgrass; [9]
  Plant response rating, Blackgrass: 0
blackgrass; Preemergence, 31 g ai/ha
  Blackgrass plant response rating: 0
blackgrass; [10]
  Plant response rating, Blackgrass: 60
blackgrass; [11]
  Plant response rating, Blackgrass: 90
blackgrass; Preemergence, 250 g ai/ha
  Plant response rating (scale of 0 to 100), Blackgrass: 95
galium; [6]
  Plant response rating, Galium: 0
galium; [7]
  Plant response rating, Galium: 0
galium; [8]
  Plant response rating, Galium: 30
galium; [9]
  Plant response rating, Galium: 30
galium; Preemergence, 31 g ai/ha
  Galium plant response rating: 60
galium; [10]
  Plant response rating, Galium: 100
galium; [11]
  Plant response rating, Galium: 50
galium; Preemergence, 250 g ai/ha
  Plant response rating (scale of 0 to 100), Galium: 100
corn; [6]
  Plant response rating, Corn: 0
corn; [7]
  Plant response rating, Corn: 0
corn; [8]
  Plant response rating, Corn: 0
corn; [9]
  Plant response rating, Corn: 5
corn; Preemergence, 31 g ai/ha
  Corn plant response rating: 0
corn; [10]
  Plant response rating, Corn: 5
corn; [11]
  Plant response rating, Corn: 60
corn; Preemergence, 250 g ai/ha
  Plant response rating (scale of 0 to 100), Corn: 75
crabgrass, large; [6]
  Plant response rating, Crabgrass, Large: 10
crabgrass, large; [7]
  Plant response rating, Crabgrass, Large: 10
crabgrass, large; [8]
  Plant response rating, Crabgrass, Large: 40
crabgrass, large; [9]
  Plant response rating, Crabgrass, Large: 70
crabgrass, large; Preemergence, 31 g ai/ha
  Crabgrass, Large plant response rating: 98
crabgrass, large; [10]
  Plant response rating, Crabgrass, Large: 100
crabgrass, large; [11]
  Plant response rating, Crabgrass, Large: 100
crabgrass, large; Preemergence, 250 g ai/ha
  Plant response rating (scale of 0 to 100), Crabgrass, Large: 100
foxtail, giant; [6]
  Plant response rating, Foxtail, Giant: 60
foxtail, giant; [7]
  Plant response rating, Foxtail, Giant: 15
foxtail, giant; [8]
  Plant response rating, Foxtail, Giant: 50
foxtail, giant; [9]
  Plant response rating, Foxtail, Giant: 70
foxtail, giant; Preemergence, 31 g ai/ha
  Foxtail, Giant plant response rating: 90
foxtail, giant; [10]
  Plant response rating, Foxtail, Giant: 95
foxtail, giant; [11]
  Plant response rating, Foxtail, Giant: 98
foxtail, giant; Preemergence, 250 g ai/ha
  Plant response rating (scale of 0 to 100), Foxtail, Giant: 100
lambsquarters; [6]
  Plant response rating, Lambsquarters: 0
lambsquarters; [7]
  Plant response rating, Lambsquarters: 0
lambsquarters; [8]
  Plant response rating, Lambsquarters: 0
lambsquarters; [9]
  Plant response rating, Lambsquarters: 5
lambsquarters; Preemergence, 31 g ai/ha
  Lambsquarters plant response rating: 0
lambsquarters; [10]
  Plant response rating, Lambsquarters: 0
lambsquarters; [11]
  Plant response rating, Lambsquarters: 5
lambsquarters; Preemergence, 250 g ai/ha
  Plant response rating (scale of 0 to 100), Lambsquarters: 0
pigweed; [6]
  Plant response rating, Pigweed: 5
pigweed; [7]
  Plant response rating, Pigweed: 5
pigweed; [8]
  Plant response rating, Pigweed: 5
pigweed; [9]
  Plant response rating, Pigweed: 10
pigweed; Preemergence, 31 g ai/ha
  Pigweed plant response rating: 30
pigweed; [10]
  Plant response rating, Pigweed: 0
pigweed; [11]
  Plant response rating, Pigweed: 0
pigweed; Preemergence, 250 g ai/ha
  Plant response rating (scale of 0 to 100), Pigweed: 20
velvetleaf; [6]
  Plant response rating, Velvetleaf: 0
velvetleaf; [7]
  Plant response rating, Velvetleaf: 0
velvetleaf; [8]
  Plant response rating, Velvetleaf: 0
velvetleaf; [9]
  Plant response rating, Velvetleaf: 5
velvetleaf; Preemergence, 31 g ai/ha
  Velvetleaf plant response rating: 0
velvetleaf; [10]
  Plant response rating, Velvetleaf: 0
velvetleaf; [11]
  Plant response rating, Velvetleaf: 0
velvetleaf; Preemergence, 250 g ai/ha
  Plant response rating (scale of 0 to 100), Velvetleaf: 10

## O=C1NCC(c2cccc(OC(F)(F)F)c2)C1C(=O)Nc1ccccc1F (stereo not drawn) [Compound 69]
Barnyardgrass [1]; [3]
  Plant response rating, Barnyardgrass: 70
Barnyardgrass [1]; [4]
  Plant response rating, Barnyardgrass: 80
Barnyardgrass [1]; 125 g ai/ha
  Barnyardgrass plant response rating: 80
Barnyardgrass [1]; [5]
  Plant response rating, Barnyardgrass: 90
rice; 250 g ai/ha
  Plant response rating, Rice: 30
Barnyardgrass [2]; 250 g ai/ha
  Plant response rating, Barnyardgrass: 40
blackgrass; Preemergence, 31 g ai/ha
  Blackgrass plant response rating: 0
blackgrass; [10]
  Plant response rating, Blackgrass: 5
blackgrass; [11]
  Plant response rating, Blackgrass: 30
blackgrass; Preemergence, 250 g ai/ha
  Plant response rating (scale of 0 to 100), Blackgrass: 35
galium; Preemergence, 31 g ai/ha
  Galium plant response rating: 0
galium; [10]
  Plant response rating, Galium: 0
galium; [11]
  Plant response rating, Galium: 5
galium; Preemergence, 250 g ai/ha
  Plant response rating (scale of 0 to 100), Galium: 75
corn; Preemergence, 31 g ai/ha
  Corn plant response rating: 15
corn; [10]
  Plant response rating, Corn: 15
corn; [11]
  Plant response rating, Corn: 25
corn; Preemergence, 250 g ai/ha
  Plant response rating (scale of 0 to 100), Corn: 30
crabgrass, large; Preemergence, 31 g ai/ha
  Crabgrass, Large plant response rating: 90
crabgrass, large; [10]
  Plant response rating, Crabgrass, Large: 90
crabgrass, large; [11]
  Plant response rating, Crabgrass, Large: 95
crabgrass, large; Preemergence, 250 g ai/ha
  Plant response rating (scale of 0 to 100), Crabgrass, Large: 95
foxtail, giant; Preemergence, 31 g ai/ha
  Foxtail, Giant plant response rating: 75
foxtail, giant; [10]
  Plant response rating, Foxtail, Giant: 85
foxtail, giant; [11]
  Plant response rating, Foxtail, Giant: 85
foxtail, giant; Preemergence, 250 g ai/ha
  Plant response rating (scale of 0 to 100), Foxtail, Giant: 90
lambsquarters; Preemergence, 31 g ai/ha
  Lambsquarters plant response rating: 35
lambsquarters; [10]
  Plant response rating, Lambsquarters: 35
lambsquarters; [11]
  Plant response rating, Lambsquarters: 65
lambsquarters; Preemergence, 250 g ai/ha
  Plant response rating (scale of 0 to 100), Lambsquarters: 85
pigweed; Preemergence, 31 g ai/ha
  Pigweed plant response rating: 15
pigweed; [10]
  Plant response rating, Pigweed: 25
pigweed; [11]
  Plant response rating, Pigweed: 25
pigweed; Preemergence, 250 g ai/ha
  Plant response rating (scale of 0 to 100), Pigweed: 25
velvetleaf; Preemergence, 31 g ai/ha
  Velvetleaf plant response rating: 30
velvetleaf; [10]
  Plant response rating, Velvetleaf: 30
velvetleaf; [11]
  Plant response rating, Velvetleaf: 30
velvetleaf; Preemergence, 250 g ai/ha
  Plant response rating (scale of 0 to 100), Velvetleaf: 30

Source: patent US10294202B2, “Pyrrolidinones as herbicides” (FMC Corporation, priority 2013, dated 2019)
